Assay results published in the OligoGym collection.
Values joined by “and” are separate entries in the source; they are usually repeats but may differ in a detail not shown here. Equal values may be shown once. These antisense oligonucleotides have a phosphorothioate backbone; sugars and methylation of C are not fully specified.

Biological target: BIRC3
Conditions: ASO
Further: test concentration or dose not given here.

AAATCTTGATTTGCTCTG was tested. Which remaining target (mRNA or protein) (fraction of control) did it give?
The remaining target (mRNA or protein) (fraction of control) was 0.93.

Which remaining target (mRNA or protein) (fraction of control) does the source give for AACATCATGTTCTTGTTC here?
The remaining target (mRNA or protein) (fraction of control) was 0.91.

AAGAAGGAGCACAATCTT was tested. Which remaining target (mRNA or protein) (fraction of control) did it give?
The remaining target (mRNA or protein) (fraction of control) was 0.3.

How did the remaining target (mRNA or protein) (fraction of control) turn out when AATTGTTCTTCCACTGGT was run?
The remaining target (mRNA or protein) (fraction of control) was ≥ 1.

Which remaining target (mRNA or protein) (fraction of control) does the source give for ACCATATTTCACTGATTC here?
The remaining target (mRNA or protein) (fraction of control) was 0.3.

How did the remaining target (mRNA or protein) (fraction of control) turn out when ACTGAAGACATTTTGAAT was run?
The remaining target (mRNA or protein) (fraction of control) was 0.38.

Which remaining target (mRNA or protein) (fraction of control) does the source give for AGAGCCACGGAAATATCC here?
Its remaining target (mRNA or protein) (fraction of control) is 0.91.

How did the remaining target (mRNA or protein) (fraction of control) turn out when AGCAAGCCACTCTGTCTC was run?
The remaining target (mRNA or protein) (fraction of control) was 0.5.

With AGCAGGAAAAGTGGAATA as the sequence, how does the remaining target (mRNA or protein) (fraction of control) read?
Its remaining target (mRNA or protein) (fraction of control) is ≥ 1.

Biological target: ICAM1
Conditions: ASO

How did the remaining target (mRNA or protein) (fraction of control) turn out when CCCCCACCACTTCCCCTCTC was run?
Its remaining target (mRNA or protein) (fraction of control) is 0.

Which remaining target (mRNA or protein) (fraction of control) does the source give for CCCCCACCACTTCCCCTCTCA here?
The remaining target (mRNA or protein) (fraction of control) was 0.07.

How did the remaining target (mRNA or protein) (fraction of control) turn out when CCCCGACTCACCTGGGAACAG was run?
Its remaining target (mRNA or protein) (fraction of control) is 0.66.

With CCCGGAAACCTCGCGC as the sequence, how does the remaining target (mRNA or protein) (fraction of control) read?
Its remaining target (mRNA or protein) (fraction of control) is 0.88.

Which remaining target (mRNA or protein) (fraction of control) does the source give for CCTGTCCCGGGATAGGTTCA here?
The remaining target (mRNA or protein) (fraction of control) was 0.4.

How did the remaining target (mRNA or protein) (fraction of control) turn out when CGATGGGCAGTGGGAAAG was run?
The remaining target (mRNA or protein) (fraction of control) was 0.95.

With CGGGGGCTGCTGGGAGC as the sequence, how does the remaining target (mRNA or protein) (fraction of control) read?
Its remaining target (mRNA or protein) (fraction of control) is 0.76.

For CTATGGAGGGCCACTTC, which remaining target (mRNA or protein) (fraction of control) is on record?
The remaining target (mRNA or protein) (fraction of control) was 0.39.

CTCATCCAGCAGGCTCAGGG was tested. Which remaining target (mRNA or protein) (fraction of control) did it give?
The remaining target (mRNA or protein) (fraction of control) was 0.75.

With CTCTGAGTAGCAGAGG as the sequence, how does the remaining target (mRNA or protein) (fraction of control) read?
Its remaining target (mRNA or protein) (fraction of control) is 0.76.

CTCTGAGTAGCAGAGGAGCTC was tested. Which remaining target (mRNA or protein) (fraction of control) did it give?
Its remaining target (mRNA or protein) (fraction of control) is 0.17.

Which remaining target (mRNA or protein) (fraction of control) does the source give for CTGAGGTTGC here?
Its remaining target (mRNA or protein) (fraction of control) is 0.95.

For GACACTCAATAAATAGCTGGT, which remaining target (mRNA or protein) (fraction of control) is on record?
The remaining target (mRNA or protein) (fraction of control) was 0.5.

With GAGGAGCTCAGCGTCGACTG as the sequence, how does the remaining target (mRNA or protein) (fraction of control) read?
Its remaining target (mRNA or protein) (fraction of control) is 0.83 and ≥ 1.

For GAGGCTGAGGTGGGAGGA, which remaining target (mRNA or protein) (fraction of control) is on record?
The remaining target (mRNA or protein) (fraction of control) was 0.98.

Which remaining target (mRNA or protein) (fraction of control) does the source give for GAGTAGCAGAGGAGC here?
The remaining target (mRNA or protein) (fraction of control) was 0.61.

Which remaining target (mRNA or protein) (fraction of control) does the source give for GATGCTACACATGTC here?
The remaining target (mRNA or protein) (fraction of control) was 0.58.

For GCCCATTGCAGGGCCAGGGC, which remaining target (mRNA or protein) (fraction of control) is on record?
Its remaining target (mRNA or protein) (fraction of control) is 0.

With GCGTCGACTGGGGCGCGTGAT as the sequence, how does the remaining target (mRNA or protein) (fraction of control) read?
Its remaining target (mRNA or protein) (fraction of control) is 0.95.

GCTACACATGTCTATGGAGGG was tested. Which remaining target (mRNA or protein) (fraction of control) did it give?
The remaining target (mRNA or protein) (fraction of control) was 0.35.

How did the remaining target (mRNA or protein) (fraction of control) turn out when GCTTTCCCGGAAA was run?
Its remaining target (mRNA or protein) (fraction of control) is 0.82.

Which remaining target (mRNA or protein) (fraction of control) does the source give for GCTTTCCCGGAAACCTCGCGC here?
Its remaining target (mRNA or protein) (fraction of control) is 0.48.

GGAAACCTCGCGC was tested. Which remaining target (mRNA or protein) (fraction of control) did it give?
Its remaining target (mRNA or protein) (fraction of control) is 0.91.

GGAGCCATAGCGAGGC was tested. Which remaining target (mRNA or protein) (fraction of control) did it give?
The remaining target (mRNA or protein) (fraction of control) was 0.35.

How did the remaining target (mRNA or protein) (fraction of control) turn out when GGAGCTCAGCGTCGA was run?
The remaining target (mRNA or protein) (fraction of control) was 0.85.

With GGCAGAAATGTATGTGGGTGG as the sequence, how does the remaining target (mRNA or protein) (fraction of control) read?
Its remaining target (mRNA or protein) (fraction of control) is 0.68.

Which remaining target (mRNA or protein) (fraction of control) does the source give for GGCTGAGGTTG here?
The remaining target (mRNA or protein) (fraction of control) was 0.9.

How did the remaining target (mRNA or protein) (fraction of control) turn out when GGGCCACTTCTTCTGTAA was run?
Its remaining target (mRNA or protein) (fraction of control) is 0.33.

GGGCGCGTGATCCTTATAGC was tested. Which remaining target (mRNA or protein) (fraction of control) did it give?
Its remaining target (mRNA or protein) (fraction of control) is 0.8.

How did the remaining target (mRNA or protein) (fraction of control) turn out when GGGGCGGTGCTGCTTTCCCGG was run?
The remaining target (mRNA or protein) (fraction of control) was ≥ 1.

How did the remaining target (mRNA or protein) (fraction of control) turn out when GGGTTGAAGCCATTGCAGGG was run?
The remaining target (mRNA or protein) (fraction of control) was 0.45.

Which remaining target (mRNA or protein) (fraction of control) does the source give for GGTTGCAACTCTGAG here?
Its remaining target (mRNA or protein) (fraction of control) is 0.36.

Which remaining target (mRNA or protein) (fraction of control) does the source give for TCTGAGTAGCAGAGGAGCTCA here?
Its remaining target (mRNA or protein) (fraction of control) is 0.3.

TCTGAGTAGCAGAGGAGCTCAG was tested. Which remaining target (mRNA or protein) (fraction of control) did it give?
The remaining target (mRNA or protein) (fraction of control) was 0.33.

For TGATCCTTTATAGCGCTAGCC, which remaining target (mRNA or protein) (fraction of control) is on record?
Its remaining target (mRNA or protein) (fraction of control) is 0.9.

For TGCATCCCCCAGGCCACCAT, which remaining target (mRNA or protein) (fraction of control) is on record?
Its remaining target (mRNA or protein) (fraction of control) is 0.

Which remaining target (mRNA or protein) (fraction of control) does the source give for TGCCAGTCCACATAGTGTTT here?
Its remaining target (mRNA or protein) (fraction of control) is 0.25.

With TGCCCATCAGGGCAGTTTGA as the sequence, how does the remaining target (mRNA or protein) (fraction of control) read?
The remaining target (mRNA or protein) (fraction of control) was 0.4.

With TGCTTACCCTCCCACAGCAG as the sequence, how does the remaining target (mRNA or protein) (fraction of control) read?
The remaining target (mRNA or protein) (fraction of control) was 0.1.

TGGGAGCCATAGCGAG was tested. Which remaining target (mRNA or protein) (fraction of control) did it give?
Its remaining target (mRNA or protein) (fraction of control) is 0.55.

For TGGGAGCCATAGCGAGGC, which remaining target (mRNA or protein) (fraction of control) is on record?
The remaining target (mRNA or protein) (fraction of control) was 0.38.

Which remaining target (mRNA or protein) (fraction of control) does the source give for TTGAGAAAGCTTTATTAACT here?
The remaining target (mRNA or protein) (fraction of control) was ≥ 1.

How did the remaining target (mRNA or protein) (fraction of control) turn out when TTGGGACAATGTCTCAGCTT was run?
Its remaining target (mRNA or protein) (fraction of control) is 0.25.

Biological target: TNF
Conditions: ASO

AAACTTACCTACGACGTGGGC was tested. Which remaining target (mRNA or protein) (fraction of control) did it give?
The remaining target (mRNA or protein) (fraction of control) was ≥ 1.

For AAAGCTTTAAGTCCCCCGCCC, which remaining target (mRNA or protein) (fraction of control) is on record?
The remaining target (mRNA or protein) (fraction of control) was 0.25.

How did the remaining target (mRNA or protein) (fraction of control) turn out when AATAATAAATAATAAATAAAT was run?
The remaining target (mRNA or protein) (fraction of control) was ≥ 1.

With ACACTTACTGAGTGTGAGGGT as the sequence, how does the remaining target (mRNA or protein) (fraction of control) read?
The remaining target (mRNA or protein) (fraction of control) was ≥ 1.

ACTTTCCCAGCAGGTATTTGG was tested. Which remaining target (mRNA or protein) (fraction of control) did it give?
The remaining target (mRNA or protein) (fraction of control) was 0.88.

Which remaining target (mRNA or protein) (fraction of control) does the source give for AGAGCCACAATTCCCTTTCTA here?
Its remaining target (mRNA or protein) (fraction of control) is 0.2.

Which remaining target (mRNA or protein) (fraction of control) does the source give for AGGCTCCTGTTTCCGGGGAGA here?
The remaining target (mRNA or protein) (fraction of control) was ≥ 1.

How did the remaining target (mRNA or protein) (fraction of control) turn out when AGGGAAGGAAGGAAGGAAGGG was run?
The remaining target (mRNA or protein) (fraction of control) was ≥ 1.

With AGTGAGTTCCGAAAGCCCATT as the sequence, how does the remaining target (mRNA or protein) (fraction of control) read?
The remaining target (mRNA or protein) (fraction of control) was 0.94.

With ATTTGGAATTCCCAGAGTGGG as the sequence, how does the remaining target (mRNA or protein) (fraction of control) read?
Its remaining target (mRNA or protein) (fraction of control) is ≥ 1.

CAGTCACGGCTCCCGTGGG was tested. Which remaining target (mRNA or protein) (fraction of control) did it give?
The remaining target (mRNA or protein) (fraction of control) was 0.91.

Which remaining target (mRNA or protein) (fraction of control) does the source give for CAGTCTGGGAAGCTCTGAGGG here?
Its remaining target (mRNA or protein) (fraction of control) is ≥ 1.

With CATTTCTTTTCCAAGCGAAC as the sequence, how does the remaining target (mRNA or protein) (fraction of control) read?
Its remaining target (mRNA or protein) (fraction of control) is 0.94.

CCCTTAGGTTTCCCAGCAAGC was tested. Which remaining target (mRNA or protein) (fraction of control) did it give?
The remaining target (mRNA or protein) (fraction of control) was 0.38.

Which remaining target (mRNA or protein) (fraction of control) does the source give for CCGTGCTCATGGTGTCCTTTC here?
The remaining target (mRNA or protein) (fraction of control) was 0.51.

With CCTATTCCCTTTCCTCCCAAA as the sequence, how does the remaining target (mRNA or protein) (fraction of control) read?
The remaining target (mRNA or protein) (fraction of control) was 0.14.
